{"source": "ChEMBL document CHEMBL1201862", "about": "“PubChem BioAssay data set” (2004)", "assay_in_all_cases": "NCI tumour cell line growth inhibition, 48 h", "key": {"HCT-116": {"test_system": "HCT-116"}, "HCC 2998": {"test_system": "HCC 2998"}, "NCI/ADR-RES": {"test_system": "NCI/ADR-RES"}, "MOLT-4": {"test_system": "MOLT-4"}, "Malme-3M": {"test_system": "Malme-3M"}, "SW-620": {"test_system": "SW-620"}, "CCRF-CEM": {"test_system": "CCRF-CEM"}, "OVCAR-8": {"test_system": "OVCAR-8"}, "SF-295": {"test_system": "SF-295"}, "OVCAR-5": {"test_system": "OVCAR-5"}, "SF-539": {"test_system": "SF-539"}, "CAKI-1": {"test_system": "CAKI-1"}, "HCT-15": {"test_system": "HCT-15"}, "SNB-75": {"test_system": "SNB-75"}, "SK-MEL-5": {"test_system": "SK-MEL-5"}, "COLO 205": {"test_system": "COLO 205"}, "SN12C": {"test_system": "SN12C"}, "ACHN": {"test_system": "ACHN"}, "DU-145": {"test_system": "DU-145"}, "MDA-MB-435": {"test_system": "MDA-MB-435"}, "UO-31": {"test_system": "UO-31"}, "OVCAR-3": {"test_system": "OVCAR-3"}, "SF-268": {"test_system": "SF-268"}, "MDA-MB-231": {"test_system": "MDA-MB-231"}, "A498": {"test_system": "A498"}, "UACC-62": {"test_system": "UACC-62"}, "U-251": {"test_system": "U-251"}, "HL-60": {"test_system": "HL-60"}, "MCF7": {"test_system": "MCF7"}, "SK-MEL-28": {"test_system": "SK-MEL-28"}, "K562": {"test_system": "K562"}, "NCI-H226": {"test_system": "NCI-H226"}, "T47D": {"test_system": "T47D"}, "SK-OV-3": {"test_system": "SK-OV-3"}, "UACC-257": {"test_system": "UACC-257"}, "RPMI-8226": {"test_system": "RPMI-8226"}, "KM12": {"test_system": "KM12"}, "SNB-19": {"test_system": "SNB-19"}, "NCI-H460": {"test_system": "NCI-H460"}, "OVCAR-4": {"test_system": "OVCAR-4"}, "EKVX": {"test_system": "EKVX"}, "IGROV-1": {"test_system": "IGROV-1"}, "BT-549": {"test_system": "BT-549"}, "786-0": {"test_system": "786-0"}, "RXF 393": {"test_system": "RXF 393"}, "NCI-H23": {"test_system": "NCI-H23"}, "TK-10": {"test_system": "TK-10"}, "LOX IMVI": {"test_system": "LOX IMVI"}, "A549": {"test_system": "A549"}, "HOP-62": {"test_system": "HOP-62"}}, "note": "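Briefly, cells in 96-well plates were exposed to five compound concentrations for 48 h, and endpoints were estimated by linear interpolation. At the GI50, growth is halved.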 Activity calls are given as the source filed them. Rule as the data show it: active = GI50 up to about 1.1 µM and inactive = higher."}
{"smiles": "CC1CSc2nc3nc(S)nc-3c(O)n2C1", "note": "(stereo not given)", "values": [{"measurement": "GI50", "setting": "HCT-116", "value": "> 100 µM (inactive)"}, {"measurement": "GI50", "setting": "HCC 2998", "value": "> 100 µM (inactive)"}, {"measurement": "GI50", "setting": "NCI/ADR-RES", "value": "> 100 µM (inactive)"}, {"measurement": "GI50", "setting": "MOLT-4", "value": "> 100 µM (inactive)"}, {"measurement": "GI50", "setting": "Malme-3M", "value": "> 100 µM (inactive)"}, {"measurement": "GI50", "setting": "SW-620", "value": "> 100 µM (inactive)"}, {"measurement": "GI50", "setting": "CCRF-CEM", "value": "> 100 µM (inactive)"}, {"measurement": "GI50", "setting": "OVCAR-8", "value": "> 100 µM (inactive)"}, {"measurement": "GI50", "setting": "SF-295", "value": "> 100 µM (inactive)"}, {"measurement": "GI50", "setting": "OVCAR-5", "value": "> 100 µM (inactive)"}, {"measurement": "GI50", "setting": "SF-539", "value": "> 100 µM (inactive)"}, {"measurement": "GI50", "setting": "CAKI-1", "value": "> 100 µM (inactive)"}, {"measurement": "GI50", "setting": "HCT-15", "value": "> 100", "unit": "µM"}, {"measurement": "GI50", "setting": "SNB-75", "value": "> 100 µM (inactive)"}, {"measurement": "GI50", "setting": "SK-MEL-5", "value": "> 100 µM (inactive)"}, {"measurement": "GI50", "setting": "COLO 205", "value": "> 100 µM (inactive)"}, {"measurement": "GI50", "setting": "SN12C", "value": "> 100 µM (inactive)"}, {"measurement": "GI50", "setting": "ACHN", "value": "> 100 µM (inactive)"}, {"measurement": "GI50", "setting": "DU-145", "value": "> 100 µM (inactive)"}, {"measurement": "GI50", "setting": "MDA-MB-435", "value": "> 100 µM (inactive)"}, {"measurement": "GI50", "setting": "UO-31", "value": "> 100 µM (inactive)"}, {"measurement": "GI50", "setting": "OVCAR-3", "value": "> 100 µM (inactive)"}, {"measurement": "GI50", "setting": "SF-268", "value": "> 100 µM (inactive)"}, {"measurement": "GI50", "setting": "MDA-MB-231", "value": "> 100 µM (inactive)"}, {"measurement": "GI50", "setting": "A498", "value": "> 100 µM (inactive)"}, {"measurement": "GI50", "setting": "UACC-62", "value": "> 100 µM (inactive)"}, {"measurement": "GI50", "setting": "U-251", "value": "> 100 µM (inactive)"}, {"measurement": "GI50", "setting": "HL-60", "value": "> 100 µM (inactive)"}, {"measurement": "GI50", "setting": "MCF7", "value": "> 100 µM (inactive)"}, {"measurement": "GI50", "setting": "SK-MEL-28", "value": "> 100 µM (inactive)"}, {"measurement": "GI50", "setting": "K562", "value": "> 100 µM (inactive)"}, {"measurement": "GI50", "setting": "NCI-H226", "value": "> 100 µM (inactive)"}, {"measurement": "GI50", "setting": "T47D", "value": "> 100 µM (inactive)"}, {"measurement": "GI50", "setting": "SK-OV-3", "value": "> 100 µM (inactive)"}, {"measurement": "GI50", "setting": "UACC-257", "value": "> 100 µM (inactive)"}, {"measurement": "GI50", "setting": "RPMI-8226", "value": "> 100 µM (inactive)"}, {"measurement": "GI50", "setting": "KM12", "value": "> 100 µM (inactive)"}, {"measurement": "GI50", "setting": "SNB-19", "value": "> 100 µM (inactive)"}, {"measurement": "GI50", "setting": "NCI-H460", "value": "> 100 µM (inactive)"}, {"measurement": "GI50", "setting": "OVCAR-4", "value": "> 100 µM (inactive)"}, {"measurement": "GI50", "setting": "EKVX", "value": "> 100 µM (inactive)"}, {"measurement": "GI50", "setting": "IGROV-1", "value": "> 100 µM (inactive)"}, {"measurement": "GI50", "setting": "BT-549", "value": "> 100 µM (inactive)"}, {"measurement": "GI50", "setting": "786-0", "value": "> 100 µM (inactive)"}, {"measurement": "GI50", "setting": "RXF 393", "value": "> 100 µM (inactive)"}, {"measurement": "GI50", "setting": "NCI-H23", "value": "> 100 µM (inactive)"}, {"measurement": "GI50", "setting": "TK-10", "value": "> 100 µM (inactive)"}, {"measurement": "GI50", "setting": "LOX IMVI", "value": "> 100 µM (inactive)"}, {"measurement": "GI50", "setting": "A549", "value": "> 100 µM (inactive)"}, {"measurement": "GI50", "setting": "HOP-62", "value": "> 100 µM (inactive)"}]}
